Reference: publication PMC8443696, “Structural determinants and regulation of spontaneous activity in GABAA receptors” (Nature Communications, 2021)
Where “and” joins values, the source holds several entries; their conditions need not be identical. Equal values may be shown once.

What was measured:
Format in all cases: cell-based, mouse
α4β2δ receptor = tested on: T1, α4β2δ receptor; test: Quantification of spontaneous activity (Ispont) in HEK cells, whole-cell patch clamp; details: AP 100 nM (Fig. 6b), listed as AP
T1 construct: expressed in transfected cells; host or cells: HEK 293
From the text: (§1) All components were obtained from Life Technologies.
(§2) Currents were acquired with Clampex ver.
(§3) Cells were voltage clamped at −40 mV.
(§4) For assessment of the efficacy of allosteric modulators on spontaneous activity, compounds were briefly applied (3–5 s) to achieve steady-state currents (IMod). […] The IMod was summed with IPTX (or subtracted for inhibitory modulators) and the Ispont calculated, as described by Eq. (2):2 Ispont(%)=[(IPTX+IMod)/(IPTX+IMax)]×100……………………………………

α4β3δ receptors = target: T2, α4β3δ receptors (UniProt P18506+P63080+Q9D6F4); details: THIP 3 mM
T2 construct: expressed in transfected cells; host or cells: HEK 293
From the text: as §1, §2, §3, §4

α1β3γ2L receptors = tested on: T3, α1β3γ2L receptors; test: Quantification of spontaneous activity (Ispont) in HEK cells, whole-cell patch clamp; details: α1β3γ2L THIP (Fig. 1d); THIP 3 mM, PTX 100 µM; individual cells
T3 construct: expressed in transfected cells; host or cells: HEK 293
From the text: as §1, §2, §3, §4

T2 sequence (Q9D6F4 36-552): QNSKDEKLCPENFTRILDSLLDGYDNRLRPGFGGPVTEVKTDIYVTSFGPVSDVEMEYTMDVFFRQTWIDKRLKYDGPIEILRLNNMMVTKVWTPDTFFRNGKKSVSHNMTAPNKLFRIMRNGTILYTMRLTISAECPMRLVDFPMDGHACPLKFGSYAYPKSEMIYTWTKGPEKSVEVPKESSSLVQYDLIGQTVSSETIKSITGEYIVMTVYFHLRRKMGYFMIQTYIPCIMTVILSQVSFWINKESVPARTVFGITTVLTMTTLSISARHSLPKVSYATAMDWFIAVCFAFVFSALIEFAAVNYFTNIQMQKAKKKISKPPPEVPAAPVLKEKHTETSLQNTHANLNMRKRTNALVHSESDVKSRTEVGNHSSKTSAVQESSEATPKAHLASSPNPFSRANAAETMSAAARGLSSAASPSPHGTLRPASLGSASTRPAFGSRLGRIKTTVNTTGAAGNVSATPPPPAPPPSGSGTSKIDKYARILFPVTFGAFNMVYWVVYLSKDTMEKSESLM
T2 sequence (P63080 26-473): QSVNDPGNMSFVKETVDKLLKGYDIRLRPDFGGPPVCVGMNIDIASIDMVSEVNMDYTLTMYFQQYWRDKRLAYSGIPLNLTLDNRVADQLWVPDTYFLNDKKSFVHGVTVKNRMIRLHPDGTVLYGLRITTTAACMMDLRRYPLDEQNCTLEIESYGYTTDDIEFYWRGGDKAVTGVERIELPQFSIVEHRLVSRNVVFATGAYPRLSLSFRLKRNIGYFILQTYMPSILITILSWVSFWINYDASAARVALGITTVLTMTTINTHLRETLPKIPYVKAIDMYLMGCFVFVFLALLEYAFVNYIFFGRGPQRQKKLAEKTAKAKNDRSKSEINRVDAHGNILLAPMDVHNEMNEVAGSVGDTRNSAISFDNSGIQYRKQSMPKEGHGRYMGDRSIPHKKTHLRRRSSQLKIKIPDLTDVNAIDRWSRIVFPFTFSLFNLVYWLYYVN
T2 sequence (P18506 25-449): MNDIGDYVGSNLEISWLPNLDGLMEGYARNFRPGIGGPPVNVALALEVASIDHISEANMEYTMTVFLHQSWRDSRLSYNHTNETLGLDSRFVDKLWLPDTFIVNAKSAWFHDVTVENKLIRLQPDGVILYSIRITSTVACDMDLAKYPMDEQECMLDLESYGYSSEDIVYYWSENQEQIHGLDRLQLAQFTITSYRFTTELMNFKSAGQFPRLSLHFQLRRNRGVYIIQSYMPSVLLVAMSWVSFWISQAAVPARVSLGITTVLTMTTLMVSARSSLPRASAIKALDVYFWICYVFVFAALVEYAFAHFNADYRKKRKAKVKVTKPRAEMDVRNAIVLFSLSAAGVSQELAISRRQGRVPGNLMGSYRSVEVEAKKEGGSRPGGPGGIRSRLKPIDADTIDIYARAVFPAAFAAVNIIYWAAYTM

Compound | Ispont in the presence of modulator (α4β2δ receptor) | Ispont, IMax from THIP (α4β3δ receptors; α4β3δ THIP (Fig. 1d), PTX 100 µM, individual cells) | IMax compared to GABA (α4β3δ receptors; α4β3δ) | Ispont, IMax from THIP (α1β3γ2L receptors)
CC(=O)[C@H]1CC[C@H]2[C@@H]3CC[C@H]4C[C@H](O)CC[C@]4(C)[C@H]3CC[C@]12C [allopregnanolone] | 0% and 0.09895% and 0.3946% | – | – | –
Oc1noc2c1CCNC2 [THIP, 4,5,6,7-tetrahydroisoxazolo[5,4-c]pyridin-3-ol] | – | 3.988% and 7.572% and 10.0793% and 6.822% and 17.8571% and 28.6432% and 15.8524% | larger | 1.055% and 0.4509% and 8.753% and 3.449% and 0.8828% and 1.773%
